Experimental findings from patent US11279687B2, “Compounds and compositions for the inhibition of NAMPT” (Valo Health, Inc., priority 2010, dated 2022) are described below.

Experiment [1] concerns the target NAMPT (Homo sapiens (Human), UniProt P43490). Description: NAMPT biochemical inhibition assay (NMN quantified by mass spectrometry).
Experiment [2] deals with A2780 cells. The experiment can be described thus: In-vitro cell proliferation assay (SRB), A2780 cells.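 Also: viable cell number read as SRB absorbance, background from media-only wells subtracted, IC50 interpolated from percent inhibition at two bracketing compound concentrations.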 It is filed as cell-based. The settings on record: A2780 cells, 72 hours, SRB, read-out: A2780 IC50.
The mark [3] stands for this setting: NAMPT biochemical inhibition, read-out: Biochem IC50.

Like-named read-outs stand apart in the source and are kept apart here.

NAMPT, sequence (P43490 whole entry): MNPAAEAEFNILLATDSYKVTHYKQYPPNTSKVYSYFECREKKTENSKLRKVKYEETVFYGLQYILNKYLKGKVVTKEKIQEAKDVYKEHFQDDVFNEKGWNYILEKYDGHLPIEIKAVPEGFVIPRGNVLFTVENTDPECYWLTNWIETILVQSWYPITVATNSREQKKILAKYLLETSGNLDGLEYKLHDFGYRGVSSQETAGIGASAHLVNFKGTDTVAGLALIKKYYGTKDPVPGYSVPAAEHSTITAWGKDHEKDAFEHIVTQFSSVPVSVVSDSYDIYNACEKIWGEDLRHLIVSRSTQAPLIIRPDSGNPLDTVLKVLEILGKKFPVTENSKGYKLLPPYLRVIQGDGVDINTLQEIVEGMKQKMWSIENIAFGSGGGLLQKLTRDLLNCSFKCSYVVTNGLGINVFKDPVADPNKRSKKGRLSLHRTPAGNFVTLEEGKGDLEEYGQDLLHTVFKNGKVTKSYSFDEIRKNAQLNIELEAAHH

What is called IC50 is the concentration that inhibits the measured activity by half. For the molecule `Cc1cccc(S(=O)(=O)c2ccc(NC(=O)NCc3cccnc3)cc2)c1` [3-{4-[(3-methylbenzene)sulfonyl]phenyl}-1-(pyridin-3-ylmethyl)urea], the IC50 in experiment [1] (setting [3]) came out at 2 nM; in experiment [2] (Homo sapiens, A2780, 72 h), 157 nM.

Regarding `CCOc1cc(S(=O)(=O)c2ccc(NC(=O)NCc3cccnc3)cc2)ccc1F` [3-{4-[(3-ethoxy-4-fluorobenzene)sulfonyl]phenyl}-1-(pyridin-3-ylmethyl)urea], the IC50 in experiment [1] (setting [3]) turned out to be 3.9 nM; in experiment [2] (Homo sapiens, A2780, 72 h), 28.3 nM.

`Cc1ccc(F)c(S(=O)(=O)c2ccc(NC(=O)NCc3cccnc3)cc2)c1Cl` [3-{4-[(2-chloro-6-fluoro-3-methylbenzene)sulfonyl]phenyl}-1-(pyridin-3-ylmethyl)urea]: the IC50 was 7 nM in experiment [1] (setting [3]) and 336 nM in experiment [2] (Homo sapiens, A2780, 72 h).

For the molecule `O=C(NCc1cccnc1)Nc1ccc(S(=O)(=O)c2cccc(C(=O)NC3CC3)c2)cc1` [N-cyclopropyl-3-[(4-{[(pyridin-3-ylmethyl)carbamoyl]amino[benzene)sulfonyl]benzamide], the IC50 in experiment [1] (setting [3]) was 6.4 nM; in experiment [2], 100 to 1000 nM.

As for `Cc1ccccc1S(=O)(=O)c1ccc(NC(=O)NCc2cccnc2)cc1` [3-{4-[(2-methylbenzene)sulfonyl]phenyl}-1-(pyridin-3-ylmethyl)urea], the IC50 came to 2 nM in experiment [1] (setting [3]) and 450 nM in experiment [2] (Homo sapiens, A2780, 72 h).

With `O=C(Nc1ccncc1)c1ccc(S(=O)(=O)c2ccccc2)cc1` [4-(benzenesulfonyl)-N-(pyridin-4-yl)benzamide], the half-maximal inhibitory concentration (IC50) in experiment [1] (setting [3]) is 651 nM; in experiment [2] (Homo sapiens, A2780, 72 h) it was 1310 nM.

Take `Cc1ccc(Cl)cc1NS(=O)(=O)c1ccc(NC(=O)NCc2cccnc2)cc1` [3-{4-[(5-chloro-2-methylphenyl)sulfamoyl]phenyl}-1-(pyridin-3-ylmethyl)urea]: the IC50 in experiment [1] (setting [3]) worked out at 1 nM; in experiment [2] (Homo sapiens, A2780, 72 h), 35 nM.

Take `O=C(NCc1cccnc1)Nc1ccc(S(=O)(=O)N2CCN(CC(=O)N3CCCCC3)CC2)cc1` [1-(4-{4-[2-oxo-2-(piperidin-1-yl)ethyl]piperazine-1-sulfonyl}phenyl)-3-(pyridin-3-ylmethyl)urea]: the IC50 came out at 9 nM in experiment [1] (setting [3]) and 21 nM in experiment [2] (Homo sapiens, A2780, 72 h).

With `O=C(NCc1cccnc1)Nc1ccc(S(=O)(=O)N2C3CCCC2CC3)cc1` [1-(4-{8-azabicyclo[3.2.1]octane-8-sulfonyl}phenyl)-3-(pyridin-3-ylmethyl)urea], the IC50 is 4 nM in experiment [1] and 64 nM in experiment [2] (Homo sapiens, A2780, 72 h).

For `O=C(NCc1cccnc1)Nc1ccc(S(=O)(=O)c2ccc(F)c(OCC(F)(F)F)c2)cc1` [3-(4-{[4-fluoro-3-(2,2,2-trifluoroethoxy)benzene]sulfonyl[phenyl)-1-(pyridin-3-ylmethyl)urea], the IC50 stood at 2.1 nM in experiment [1] (setting [3]) and 23.4 nM in experiment [2].

In the case of `CC(C)c1cccc(S(=O)(=O)c2ccc(NC(=O)NCc3cccnc3)cc2)c1` [3-(4-{[3-(propan-2-yl)benzene]sulfonyl}phenyl)-1-(pyridin-3-ylmethyl)urea], the IC50 stood at 2 nM in experiment [1] (setting [3]) and 38 nM in experiment [2] (Homo sapiens, A2780, 72 h).

Consider `O=C(NCc1ccc2nccn2c1)c1ccc(S(=O)(=O)Nc2cccc(OC(F)(F)F)c2)cc1` [N-{imidazo[1,2-a]pyridin-6-ylmethyl}-4-{[3-(trifluoromethoxy)phenyl]sulfamoyl}benzamide], for which the IC50 was determined as 467 nM in experiment [1] (setting [3]) and 8.58 nM in experiment [2] (Homo sapiens, A2780, 72 h).

As for `O=C(NCc1cccnc1)Nc1ccc(S(=O)(=O)Nc2ccc(N3CCOCC3)cc2)cc1` [1-(4-{[4-(morpholin-4-yl)phenyl]sulfamoyl}phenyl)-3-(pyridin-3-ylmethyl)urea], the IC50 in experiment [1] (setting [3]) came out at 5 nM; in experiment [2] (Homo sapiens, A2780, 72 h), 173 nM.

Take `Cc1cc(S(=O)(=O)c2ccc(NC(=O)NCc3cccnc3)cc2)ccc1F` [3-{4-[(4-fluoro-3-methylbenzene)sulfonyl]phenyl}-1-(pyridin-3-ylmethyl)urea]: the IC50 is 3.7 nM in experiment [1] (setting [3]) and 100 to 1000 nM in experiment [2] (Homo sapiens, A2780, 72 h).

Turning to `O=C(NCc1cccnc1)Nc1ccc(S(=O)(=O)N2CCN(CC(=O)N3CCCC3)CC2)cc1` [1-(4-{4-[2-oxo-2-(pyrrolidin-1-yl)ethyl]piperazine-1-sulfonyl}phenyl)-3-(pyridin-3-ylmethyl)urea], the IC50 in experiment [1] (setting [3]) is 4 nM; in experiment [2] (Homo sapiens, A2780, 72 h) it was 99 nM.

On to `COCc1cccc(S(=O)(=O)c2ccc(NC(=O)NCc3cccnc3)cc2)c1` [3-(4-{[3-(methoxymethyl)benzene]sulfonyl}phenyl)-1-(pyridin-3-ylmethyl)urea], for which the IC50 was determined as 3.3 nM in experiment [1] (setting [3]) and 93.3 nM in experiment [2] (Homo sapiens, A2780, 72 h).

Consider `Cc1ccc(S(=O)(=O)c2ccc(NC(=O)NCc3cccnc3)cc2)cc1Cl` [3-{4-[(3-chloro-4-methylbenzene)sulfonyl]phenyl}-1-(pyridin-3-ylmethyl)urea], for which the IC50 in experiment [1] (setting [3]) was 0.9 nM; in experiment [2] (Homo sapiens, A2780, 72 h), 100 to 1000 nM.

Turning to `O=C(NCc1cccnc1)Nc1ccc(S(=O)(=O)c2ccccc2F)cc1` [3-{4-[(2-fluorobenzene)sulfonyl]phenyl}-1-(pyridin-3-ylmethyl)urea], the IC50 came out at 3 nM in experiment [1] (setting [3]) and 493 nM in experiment [2] (Homo sapiens, A2780, 72 h).

Regarding `CCOCc1ccc(S(=O)(=O)c2ccc(NC(=O)NCc3cccnc3)cc2)cc1` [3-(4-{[4-(ethoxymethyl)benzene]sulfonyl[phenyl)-1-(pyridin-3-ylmethyl)urea], the IC50 in experiment [1] (setting [3]) was 1 nM; in experiment [2] (Homo sapiens, A2780, 72 h), 100 to 1000 nM.

Turning to `O=C(NCc1cccnc1)Nc1ccc(S(=O)(=O)N2CCN(CCCN3CCOCC3)CC2)cc1` [1-(4-{4-[3-(morpholin-4-yl)propyl]piperazine-1-sulfonyl}phenyl)-3-(pyridin-3-ylmethyl)urea], the IC50 was 3 nM in experiment [1] (setting [3]) and 24 nM in experiment [2] (Homo sapiens, A2780, 72 h).

Consider `O=C(Nc1ccc(S(=O)(=O)c2ccccc2)cc1)Nc1ccc2ncccc2c1` [3-[4-(benzenesulfonyl)phenyl]-1-(quinolin-6-yl)urea], for which the IC50 in experiment [1] (setting [3]) stood at 90 nM; in experiment [2] (Homo sapiens, A2780, 72 h), 15900 nM.

Consider `Cc1cc(F)ccc1S(=O)(=O)c1ccc(NC(=O)NCc2cccnc2)cc1` [3-{4-[(4-fluoro-2-methylbenzene)sulfonyl]phenyl}-1-(pyridin-3-ylmethyl)urea], for which the IC50 in experiment [1] (setting [3]) worked out at 5 nM; in experiment [2] (Homo sapiens, A2780, 72 h), 287 nM.

As to `CCNC(=O)c1ccc(S(=O)(=O)c2ccc(NC(=O)NCc3cccnc3)cc2)cc1` [N-ethyl-4-[(4-{[(pyridin-3-ylmethyl)carbamoyl]amino[benzene)sulfonyl]benzamide], the IC50 in experiment [1] (setting [3]) came out at 1.3 nM; in experiment [2] (Homo sapiens, A2780, 72 h), 40.2 nM.

Turning to `O=C(NCc1cccnc1)Nc1ccc(S(=O)(=O)Nc2ccc(N3CCCCC3)cc2)cc1` [1-(4-{[4-(piperidin-1-yl)phenyl]sulfamoyl}phenyl)-3-(pyridin-3-ylmethyl)urea], the IC50 in experiment [1] (setting [3]) was 4 nM; in experiment [2] (Homo sapiens, A2780, 72 h), 54 nM.

For `O=C(NCc1cccnc1)Nc1ccc(S(=O)(=O)c2cccnc2)cc1` [3-(pyridin-3-ylmethyl)-1-[4-(pyridine-3-sulfonyl)phenyl]urea], the IC50 in experiment [1] (setting [3]) amounted to 5 nM; in experiment [2] (Homo sapiens, A2780, 72 h) it was 595 nM.

With `Cc1ccc(S(=O)(=O)c2ccc(NC(=O)NCc3cccnc3)cc2)cn1` [3-[4-(6-methylpyridine-3-sulfonyl)phenyl]-1-(pyridin-3-ylmethyl)urea], the half-maximal inhibitory concentration (IC50) in experiment [1] (setting [3]) was 4.9 nM; in experiment [2] (Homo sapiens, A2780, 72 h), 100 to 1000 nM.

Regarding `O=C(NCc1cccnc1)Nc1ccc(S(=O)(=O)c2ccc(N3CCOCC3)nc2)cc1` [1-{4-[6-(morpholin-4-yl)pyridine-3-sulfonyl]phenyl}-3-(pyridin-3-ylmethyl)urea], the IC50 in experiment [1] (setting [3]) was found to be 3.6 nM; in experiment [2] (Homo sapiens, A2780, 72 h), 30.4 nM.

As for `Cc1ccc(C)c(N2CCN(S(=O)(=O)c3ccc(NC(=O)NCc4cccnc4)cc3)CC2)c1` [3-{4-[4-(2,5-dimethylphenyl)piperazine-1-sulfonyl]phenyl}-1-(pyridin-3-ylmethyl)urea], the IC50 in experiment [1] (setting [3]) was found to be 5 nM; in experiment [2] (Homo sapiens, A2780, 72 h), 101 nM.

With `COc1ccc(C(C)C)cc1S(=O)(=O)c1ccc(NC(=O)NCc2cccnc2)cc1` [3-(4-{[2-methoxy-5-(propan-2-yl)benzene]sulfonyl}phenyl)-1-(pyridin-3-ylmethyl)urea], the IC50 in experiment [1] (setting [3]) is 3 nM; in experiment [2] (Homo sapiens, A2780, 72 h), 31 nM.

Turning to `O=C(NCc1cccnc1)Nc1ccc(S(=O)(=O)N2CCC(CN3CCCC3=O)CC2)cc1` [1-(4-{4-[(2-oxopyrrolidin-1-yl)methyl]piperidine-1-sulfonyl}phenyl)-3-(pyridin-3-ylmethyl)urea], the IC50 in experiment [1] (setting [3]) turned out to be 2 nM; in experiment [2] (Homo sapiens, A2780, 72 h), 78 nM.

As to `CN(C)C(=O)c1cc(F)cc(S(=O)(=O)c2ccc(NC(=O)NCc3cccnc3)cc2)c1` [3-fluoro-N,N-dimethyl-5-[(4-{[(pyridin-3-ylmethyl)carbamoyl]amino}benzene)sulfonyl]benzamide], the IC50 was found to be 1.5 nM in experiment [1] (setting [3]) and 13.3 nM in experiment [2] (Homo sapiens, A2780, 72 h).

With `NS(=O)(=O)c1cccc(S(=O)(=O)c2ccc(NC(=O)NCc3cccnc3)cc2)c1` [1-(pyridin-3-ylmethyl)-3-{4-[(3-sulfamoylbenzene)sulfonyl]phenyl}urea], the IC50 in experiment [1] (setting [3]) was 3.8 nM; in experiment [2] (Homo sapiens, A2780, 72 h), 100 to 1000 nM.

With `O=C(NCc1cccnc1)Nc1ccc(S(=O)(=O)c2cccc(Cl)c2Cl)cc1` [3-{4-[(2,3-dichlorobenzene)sulfonyl]phenyl}-1-(pyridin-3-ylmethyl)urea], the IC50 in experiment [1] (setting [3]) stood at 1 nM; in experiment [2] (Homo sapiens, A2780, 72 h), 446 nM.

Take `CN(C)C(=O)c1ccc(S(=O)(=O)c2ccc(NC(=O)NCc3cccnc3)cc2)cc1` [N,N-dimethyl-4-[(4-{[(pyridin-3-ylmethyl)carbamoyl]amino}benzene)sulfonyl]benzamide]: the IC50 in experiment [1] (setting [3]) is 5 nM; in experiment [2] (Homo sapiens, A2780, 72 h), 53 nM.

For the molecule `CC(C)NC(=O)c1cccc(S(=O)(=O)c2ccc(NC(=O)NCc3cccnc3)cc2)c1` [N-(propan-2-yl)-3-[(4-{[(pyridin-3-ylmethyl)carbamoyl]amino[benzene)sulfonyl]benzamide], the IC50 was 10 nM in experiment [1] (setting [3]) and 100 to 1000 nM in experiment [2].

As for `COc1cc(F)cc(S(=O)(=O)c2ccc(NC(=O)NCc3cccnc3)cc2)c1` [3-{4-[(3-fluoro-5-methoxybenzene)sulfonyl]phenyl}-1-(pyridin-3-ylmethyl)urea], the IC50 in experiment [1] (setting [3]) was 1.7 nM; in experiment [2] (Homo sapiens, A2780, 72 h), 100 to 1000 nM.
